Test [1] relates to CD4+CD45RBhigh T transfer IBD model. The experiment in a line: CD4+CD45RBhigh T transfer inflammatory bowel disease (IBD) model in CB17 SCID mice. Format: in vivo. An excerpt:
1. Experimental Protocol for CD4^+CD45RB^high T Transfer Inflammatory Bowel Disease (IBD) Model in CB17 SCID Mice.
Balb/c mice and CB17 SCID were purchased from Zhejiang Vital River Laboratory Animal Technology Co., Ltd. (Zhejiang, China). Animals were housed and handled in a temperature-controlled environment with a 12-h light/12-h dark cycle. A total of 50 CB17 SCID mice were assigned to 5 groups by randomization based on body weight.
CD4^+ T cells were isolated from the spleens of Balb/c mice using negative magnetic bead separation kit (Miltenyi Biotec) according to the manufacturers' instructions. The CD4^+CD45RB^high T and CD4^+CD45RB^low T cells were selected by flow cytometry and used for model construction. The isolated CD4^+CD45RB^high T cells were intraperitoneally injected into 40 recipient CB17 SCID mice with 5×10^5 cells per animal. Ten mice in Group 1 (G1) were intraperitoneally injected with 5×10^5 CD4^+CD45RB^low T cells as negative control group.
40 recipient CB17 SCID mice injected with CD4^+CD45RB^high T cells were assigned to four groups (n=10 for each group): G2, vehicle control (po, qd, from day 0 to day 42); G3, 30 mg/kg Cpd. 4 (po, qd, from day 0 to day 42); G4, 30 mg/kg Cpd. 4 (po, qd, from day 14 to day 42); G5, 100 mg/kg Cpd. 4 (po, qd, from day 14 to day 42); G6, positive control, anti-mTNF-α 25 mg/kg (ip, Q3D, from day 14 to day 42).
Clinical signs of IBD were assessed every 3 day based on the scores of disease activity index (DAI) which was evaluated from two parameters using a scoring system from 0 to 4: stool consistency (0, normal stool; 1, soft but still formed stool; 2, soft and not formed stool; 3, very soft and wet stool; 4, watery diarrhea) and body weight loss (0, no body weight loos; 1, 1-5% body weight loss; 2, 6-10% body weight loss; 3, 11-20% body weight loss; 4, >20% body weight loss).
At the end of experiment, the animals were euthanized, dissected and the entire colon was quickly removed and gently cleared of feces.
The entire colon was weighed, and the total length was measured. […] Cpd.
The colons were Swiss-rolled and fixed with neutralized PFA followed by H&E staining. After that, the pathologists from WuXi clinical pathological analysis platform, who were blinded to animal ID, reviewed the H&E staining and scored. […]
At the end of the study (day 42), all the animals were sacrificed by CO2, and the colon tissues were collected and fixed in 10% formalin for pathological analysis (H&E and LFB staining). The histopathological score was evaluated microscopically in a blinded manner.

The subject of test [2] is IMQ induced psoriasis model. The experiment in a line: IMQ induced psoriasis model in Balb/c mice. Format: in vivo. As to conditions: Cpd. 4 100 mg/kg po qd day 0-6. An excerpt:
Imiquimod (IMQ) is a ligand for TLRs (Toll-like receptors) of immune cells (including macrophages, monocytes and plasmacytoid dendritic cells), and therefore contributes to strong activation of the immune system.
Female Balb/c mice (7-8 weeks old) were obtained from B&K Universal Animal Co. Ltd. Animals were housed and handled in a temperature-controlled environment with a 12-h light/12-h dark cycle. A total of 36 mice were assigned to 4 groups by randomization based on body weight (6 mice in normal control group and 10 mice in other 3 groups).
At the beginning of the study on day 0, five groups were administered a daily topical dose of 80 mg of a cream preparation containing 5% IMQ on their hair-free backs to establish a model of IMQ-induced psoriasis for seven consecutive days. The G1 normal control group received appropriate vaseline.
Mice in Group 1 and Group 2 were treated with vehicle for 7 days (po, qd, from day 0 to day 6). Mice in Group 3 were treated with 100 mg/kg Cpd. 4 for 7 days (po, qd, from day 0 to day 6). Mice in Group 4 were treated with 30 mg/kg tofacitinib for 7 days (po, bid, from day 0 to day 6). The protocols and procedures involving the care and use of animals were approved by the Institutional Animal Care and Use Committee (IACUC) at KCI (Suzhou, China).
The severity of skin inflammation was monitored and graded using a modified human scoring system Psoriasis Area Severity Index (PASI). Scaling, thickness, and erythema were scored separately on a scale from 0 to 4:0, none; 1, slight; 2, moderate; 3, marked; and 4, very marked. The total score denotes severity of inflammation. Ear thickness of mice was measured every day from day 0 to day 7.
Ear thickness of mice was measured every day from day 0 to day 7. […] Compared with G1 normal control group, after IMQ treatment, ear swelling was observed indicated by increased ear thickness in G2 group reaching the maximal ear thickness to 0.40±0.02 mm on day 7. Cpd.

Entries after “also recorded” stand apart in the source; their conditions may differ.

Here are results for 1 compound from patent US20250152580A1, “METHODS FOR TREATING IMMUNE DISEASES” (Ascentage Pharma (Suzhou) co., Ltd., priority 2022, published 2025).

On to `O=C(NS(=O)(=O)c1ccc(NC[C@H]2COCCO2)c([N+](=O)[O-])c1)c1ccc(N2CCN(CC3=C(c4ccc(Cl)cc4)CC4(CCC4)CC3)CC2)cc1Oc1cnc2[nH]ccc2c1` [Cpd. 4, (S)-N-((4-(((1,4-dioxan-2-yl)methyl)amino)-3-nitrophenyl)sulfonyl)-2-((1H-pyrrolo[2,3-b]pyridin-5-yl)oxy)-4-(4-((6-(4-chlorophenyl)spiro[3.5]non-6-en-7-yl)methyl)piperazin-1-yl)benzamide], for which the “disease activity index (DAI), clinical score of IBD” value in test [1] (Cpd. 4 po qd: G3 30 mg/kg day 0-42, G4 30 mg/kg day 14-42, G5 100 mg/kg day 14-42, anti-mTNF-α 25 mg/kg ip Q3D day 14-42, compared with Vehicle) is reported as “significantly reducing the clinical score; also recorded: significantly reduced”. The “pathological score (colon, H&E)” value in test [1] (day 42, all Cpd. 4 groups, compared with Vehicle) is recorded as “significantly reduced; also recorded: significantly decreased”. The colon weight entry in test [1] (end of experiment, Cpd. 4 all treatment groups (G3, G4, G5), anti-mTNF-α 25 mg/kg ip Q3D, vehicle 439.1 mg) is reported as “significantly decreased”. Also, the colon length result in test [1] (end of experiment, Cpd. 4 in G3 (30 mg/kg day 0-42) and G5 (100 mg/kg day 14-42), anti-mTNF-α 25 mg/kg ip Q3D, vehicle 7.72 cm) is recorded as “significantly increased”. Moreover, the ear thickness entry in test [2] (compared with Vehicle (0.40±0.02 mm day 7) and tofacitinib 30 mg/kg po bid) was “significantly reducing the ear thickness; also recorded: comparable to that of tofacitinib; also recorded: significantly reduced”. In addition, in test [2] (tofacitinib 30 mg/kg po bid, compared with Vehicle), the “PASI score (Psoriasis Area Severity Index)” value was “significantly reducing the clinical PASI score; also recorded: significantly reduced”.
